From paper PMC10895668, “Lead Optimization of the 5-Phenylpyrazolopyrimidinone NPD-2975 toward Compounds with Improved Antitrypanosomal Efficacy” (Journal of Medicinal Chemistry, 2024) come the findings set out here.

Read-outs that look alike come from different tables or passages of the source.

For data set [1] the following is noted: human, microsomes, 1 h.
Data set [2] relates to MRC-5 cells. The data set can be described thus: MRC-5SV2 cytotoxicity assay. The following applies: Homo sapiens, MRC5, 72 h; cytotoxicity, 3 days incubation; mean ± SD, n ≥ 2; read-out: pIC50 MRC-5 (converted). Format: cell-based. How it is done:
The synthesized analogues were tested against T. b. brucei, and inhibition of MRC-5 (human lung fibroblasts MRC-5SV40) cell proliferation was included as cytotoxicity control. […] Analogue 17 with an amino group instead of the carbonyl group was prepared to improve solubility for further modification. […] In vitro experiments were carried out with the bloodstream form of the T. b. brucei Squib strain (suramin-sensitive). […] All cultures and assays were conducted at 37 °C under an atmosphere of 5% CO2. […] Cell growth is compared to untreated-control wells (100% cell growth) and medium-control wells (0% cell growth). […] After 4 h at 37 °C, fluorescence is measured (λex 550 nm, λem 590 nm). The results are expressed as % reduction in cell growth/viability compared to control wells and an IC50 and an IC90 (50 and 90% inhibitory concentrations) are determined.

The conditions of data set [3]: mouse, microsomes.
The subject of data set [4] is peritoneal mouse macrophages (PMM). Description: Cytotoxicity on peritoneal mouse macrophages. As to conditions: Macrophage, n ≥ 2. The data set is classed as cell-based.
The test system of data set [5] is Leishmania infantum. The data set can be described thus: Antiparasitic assay, L. infantum. The following applies: mean ± SD, n ≥ 2, read-out: pIC50 L. infantum (converted). The data set is classed as cell-based. How it is done: (§1) First, they were tested in vitro against the protozoan species Trypanosoma cruzi and Leishmania infantum and the clinically relevant T. b. rhodesiense.
(§2) The antiparasitic assays were carried out exactly as described in Blaazer et al.([39]) Metabolic stability, pharmacokinetics, acute mouse infection model results were collected as described previously.[21] All animal experiments were conducted in compliance with institutional guidelines and following approval by the Ethical Committee of the University of Antwerp, Belgium [UA-ECD 2014–96]. Female Swiss mice (15–20 g), were purchased from Janvier (Le Genest Saint Isle, France). […] Animals were treated PO b.i.d. for 5 days at 25 and 50 mg/kg 31c. For the SL-RNA qPCR experiments blood was collected sublingually and subjected to erythrocyte lysis before extracting RNA with the QIAamp RNA Blood Mini kit (Qiagen). […] Small pieces of fat, brain, and spleen tissue were excised and immediately transferred to RNA later (Qiagen) and incubated overnight at 4 °C. RNA extraction was performed as instructed in the RNeasy Mini Plus Kit manual (Qiagen). The one-step SensiFAST SYBR Hi-Rox PCR kit (Bioline USA Inc., via Gentaur Belgium BVBA, Kampenhout, Belgium) was used for the PCR with the following forward and reverse primers, respectively 5′-[…]-3′ and 5′-[…]-3′. […]

In data set [6] the test system is T. b. brucei. The data set can be described thus: Trypanosoma susceptibility assay (resazurin viability). Format: cell-based. As to conditions: for IC50: Trypanosoma brucei. How it is done: The antiparasitic assays were carried out exactly as described in Blaazer et al.([39]) Metabolic stability, pharmacokinetics, acute mouse infection model results were collected as described previously.[21] All animal experiments were conducted in compliance with institutional guidelines and following approval by the Ethical Committee of the University of Antwerp, Belgium [UA-ECD 2014–96]. Female Swiss mice (15–20 g), were purchased from Janvier (Le Genest Saint Isle, France). […] Animals were treated PO b.i.d. for 5 days at 25 and 50 mg/kg 31c. For the SL-RNA qPCR experiments blood was collected sublingually and subjected to erythrocyte lysis before extracting RNA with the QIAamp RNA Blood Mini kit (Qiagen). […] Small pieces of fat, brain, and spleen tissue were excised and immediately transferred to RNA later (Qiagen) and incubated overnight at 4 °C. RNA extraction was performed as instructed in the RNeasy Mini Plus Kit manual (Qiagen). The one-step SensiFAST SYBR Hi-Rox PCR kit (Bioline USA Inc., via Gentaur Belgium BVBA, Kampenhout, Belgium) was used for the PCR with the following forward and reverse primers, respectively 5′-[…]-3′ and 5′-[…]-3′. An initial activation step of 10 min at 45 °C and 10 min at 95 °C was used, followed by the amplification step for 40 cycles (15 s at 95 °C, 15 s 50 °C and 15 s at 60 °C). At last, the melting curves were generated with an increment of 0.3 °C (15 s at 95 °C 1 min at 45 °C and 15 s at 95 °C). The PCR was run on the Step One Plus real-time PCR system (Applied Biosystems, California, USA). An additional qPCR was performed with the mouse housekeeping gene Eef2 to confirm successful RNA extraction.
In vitro experiments were carried out with the bloodstream form of the T. b. brucei Squib strain (suramin-sensitive). Parasites were routinely cultured in T25 culture flasks containing 10 mL of HMI-9 medium (Invitrogen) supplemented with 10% heat-inactivated fetal bovine serum (Life Technologies) and 2.5 μg/mL Geneticin (Life Technologies). MRC-5SV2 cells were cultured in MEM + Earl’s salts-medium, supplemented with 2 mM L-glutamine, 16.5 mM NaHCO3, and 5% inactivated fetal calf serum. All cultures and assays were conducted at 37 °C under an atmosphere of 5% CO2.
Parasites were counted in a KOVA counting chamber and diluted to 1.5 × 10^4 parasites/well of a 96-well plate (200 μL total volume), upon which the prediluted test compounds were added. Drug exposure covered a 72 h period without renewal of the culture medium. After 3 days of incubation, parasite growth was assessed fluorimetrically after addition of 50 μL of resazurin per well. After 6 h (T. b. rhodesiense) or 24 h (T. b. brucei) at 37 °C, fluorescence is measured (λex 550 nm, λem 590 nm). Parasite viability was assessed using the resazurin viability assay, and drug activity was calculated as percentage viability reduction compared to nontreated controls.
(Alamar Blue is a resazurin reagent that responds to reducing activity.)

Data set [7] deals with Trypanosoma cruzi. Description: Antiparasitic assay, T. cruzi. The data set is classed as cell-based. As to conditions: mean ± SD, n ≥ 2, read-out: pIC50 T. cruzi (converted). How it is done: as §1, §2

Consider `CC(C)(C)c1n[nH]c2c(=O)[nH]c(-c3ccc(F)cc3)nc12` [31c, 3-(tert-Butyl)-5-(4-fluorophenyl)-1,6-dihydro-7H-pyrazolo[4,3-d]pyrimidin-7-one], for which the parent compound remaining result in data set [1] and in data set [3] (1 h) was “at least 69%” throughout. Besides, the IC50 in data set [2] was above 63.1 µM; in data set [4] it was above 63.1 µM; in data set [5], above 63.1 µM; in data set [6] (72 h, T. b. brucei Squib bloodstream form, 72 h exposure, mean ± SD, n ≥ 2, read-out: pIC50 T. brucei (converted)), 0.0158 µM; in data set [6] (read-out: IC50 against T. b. brucei) it was 0.017 µM; in data set [7] it was above 63.1 µM. In addition, in data set [3], the “Phase-I metabolic stability (in words)” value is listed as “improved metabolic stability compared with 2”. For the same compound, the “improved potency compared to 2” value in data set [6] (T. brucei, versus compound 2) is on record as 4 fold.
